The results in this text go back to the supplement of paper PMC11616607.

The test system of one experiment is OV90. Put plainly: drug sensitivity score (DSS) from 5-point dose-response viability curve (DSS (area-under-curve based score)); higher = more sensitive (stronger growth inhibition or killing); extreme values may be limits of the assay. The settings on record: exposure time: 72 h; concentration range: 5 concentrations over 10,000-fold range. In outline: (§1)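 Drug sensitivity scores were calculated in Breeze software for each cell line and drug pair; higher scores indicate more sensitivity. A score of zero indicates no response. The underlying assay used 384-well plates: drugs were placed by an Echo 550 acoustic dispenser at five concentrations spanning a 10,000-fold range, 1,500 ovarian cancer or normal ovarian cells were added per well, and cells were kept 3 days at 37°C, 5% CO2. Viability was then measured with CellTiter-Glo luminescence on a PHERAstar FS.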
On to `CCNC(=O)c1noc(-c2cc(C(C)C)c(O)cc2O)c1-c1ccc(CN2CCOCC2)cc1` [Luminespib], for which the drug sensitivity score was 17.2.

With `O=C(O)CC[C@H]1CC[C@@](c2cc(F)ccc2F)(S(=O)(=O)c2ccc(Cl)cc2)CC1` [MK-0752], the drug sensitivity score is 0.2.

In the case of `NC1(c2ccc(-c3nc4ccn5c(=O)[nH]nc5c4cc3-c3ccccc3)cc2)CCC1` [MK-2206], the drug sensitivity score was 1.9.

`O=C(c1cccc(Cl)c1F)N1CCN(Cc2cccc(Nc3nccs3)n2)CC1` [MK-8745] registered a drug sensitivity score of 0.5.

For `Cn1cc(-c2cnn3c(N)c(Br)c([C@@H]4CCCNC4)nc23)cn1` [MK-8776], the drug sensitivity score amounted to 1.1.

`Cc1cnc(-c2ccccc2C(C)C)nc1NCc1ccc(-n2ccnn2)cc1` [ML323]: the drug sensitivity score worked out at 0.1.

`O=C(CCNC(=O)c1ccc(OC(F)(F)F)cc1)N[C@@H]1CCCc2ccccc21` [ML390] returned a drug sensitivity score of 5.6.

On to `O=C(Nc1cccc(NC(=O)c2cccc(O)c2O)c1)c1cccc(O)c1O` [MST-312], for which the drug sensitivity score stood at 7.6.

Take `CNC(=O)[C@@H](NC(=O)[C@H](CC(C)C)[C@H](O)C(=O)NO)C(C)(C)C` [Marimastat]: the drug sensitivity score worked out at 0.1.

`Cc1ccc(NC(=O)c2ccc(CN3CCN(C)CC3)cc2)cc1Nc1nc(-c2cccnc2)cs1` [Masitinib] displayed a drug sensitivity score of 5.2.

`CC(=O)O[C@]1(C(C)=O)CC[C@H]2[C@@H]3C=C(C)C4=CC(=O)CC[C@]4(C)[C@H]3CC[C@@]21C` [Megestrol acetate] showed a drug sensitivity score of 0.

The compound `CCN(CC)CCCC(C)Nc1c2ccc(Cl)cc2nc2ccc(OC)cc12` (stereo not drawn) [Mepacrine] showed a drug sensitivity score of 16.

Compound `S=c1[nH]cnc2nc[nH]c12` [Mercaptopurine] showed a drug sensitivity score of 4.4.

The compound `Cc1ccc(C(=O)Nc2ccc(Oc3cc4cnn(C)c4cc3-c3cn[nH]c3)c(F)c2)c(=O)n1-c1ccc(F)cc1` [Merestinib] yielded a drug sensitivity score of 0.6.

As to `CN(C)C(=N)NC(=N)N` [Metformin], the drug sensitivity score came to 0.

In turn, `CN(Cc1cnc2nc(N)nc(N)c2n1)c1ccc(C(=O)N[C@@H](CCC(=O)O)C(=O)O)cc1` [Methotrexate] registered a drug sensitivity score of 10.6.

The test system of a further experiment is JHOS2. The description is as above. The settings on record: exposure time: 72 h; concentration range: 5 concentrations over 10,000-fold range. In outline:
as §1
Compound `Nc1cc(COc2c(Cl)cc(C[C@H](N)C(=O)O)cc2Cl)c2oc(-c3ccccc3)nc2c1` [JPH203] displayed a drug sensitivity score of 0.

For the compound `CC(C)NC(=O)COc1cccc(-c2nc(Nc3ccc4[nH]ncc4c3)c3ccccc3n2)c1` [KD025], the drug sensitivity score is 1.2.

In turn, `CS(=O)(=O)CCNCc1ccc(-c2ccc3ncnc(Nc4ccc(OCc5cccc(F)c5)c(Cl)c4)c3c2)o1` [Lapatinib] displayed a drug sensitivity score of 0.

`O=C(Nc1cnn2ccc(N3CCC[C@@H]3c3cc(F)ccc3F)nc12)N1CC[C@H](O)C1` [Larotrectinib] displayed a drug sensitivity score of 0.

In turn, `Oc1ccc2c(c1)CC[C@H](c1ccccc1)[C@@H]2c1ccc(OCCN2CCCC2)cc1` [Lasofoxifene] had a drug sensitivity score of 0.

`Nc1cccc2c1CN(C1CCC(=O)NC1=O)C2=O` (stereo not drawn) [Lenalidomide] showed a drug sensitivity score of 0.1.

Take `COc1cc2nccc(Oc3ccc(NC(=O)NC4CC4)c(Cl)c3)c2cc1C(N)=O` [Lenvatinib]: the drug sensitivity score stood at 0.1.

Regarding `N#Cc1ccc(C(c2ccc(C#N)cc2)n2cncn2)cc1` [Letrozole], the drug sensitivity score was found to be 0.

`Cc1ccc(F)c(NC(=O)Nc2ccc(-c3cccc4[nH]nc(N)c34)cc2)c1` [Linifanib]: the drug sensitivity score is 0.

`C[C@]1(O)C[C@@H](c2nc(-c3ccc4ccc(-c5ccccc5)nc4c3)c3c(N)nccn32)C1` [Linsitinib] came in with a drug sensitivity score of 0.

For the compound `CCNCCS(=O)(=O)NC[C@@]1(c2ccccc2)SC(NC(=O)C(C)(C)C)=NN1C(=O)C(C)(C)C` [Litronesib], the drug sensitivity score is 6.1.

`Nc1nc(OCc2cc(Br)cs2)c2[nH]cnc2n1` [Lomeguatrib]: the drug sensitivity score is 0.

For `NC(=O)N1CCC(CC(=O)N2CCC([C@H]3c4ncc(Br)cc4CCc4cc(Cl)cc(Br)c43)CC2)CC1` [Lonafarnib], the drug sensitivity score came out at 8.4.

`Cc1c(F)cc(C(=O)NC2CC2)cc1-c1ccc(C(=O)NCC(C)(C)C)cn1` [Losmapimod] displayed a drug sensitivity score of 0.

`CC[C@H](C)C(=O)O[C@H]1C[C@@H](C)C=C2C=C[C@H](C)[C@H](CC[C@@H]3C[C@@H](O)CC(=O)O3)[C@H]21` [Lovastatin] registered a drug sensitivity score of 0.

`CNC(=O)c1cccc2cc(Oc3ccnc4cc(OCC5(N)CC5)c(OC)cc34)ccc12` [Lucitanib] showed a drug sensitivity score of 0.4.

As to `CCNC(=O)c1noc(-c2cc(C(C)C)c(O)cc2O)c1-c1ccc(CN2CCOCC2)cc1` [Luminespib], the drug sensitivity score is 18.8.

Consider `O=C(O)CC[C@H]1CC[C@@](c2cc(F)ccc2F)(S(=O)(=O)c2ccc(Cl)cc2)CC1` [MK-0752], for which the drug sensitivity score was 0.

As to `NC1(c2ccc(-c3nc4ccn5c(=O)[nH]nc5c4cc3-c3ccccc3)cc2)CCC1` [MK-2206], the drug sensitivity score amounted to 0.

The compound `O=C(c1cccc(Cl)c1F)N1CCN(Cc2cccc(Nc3nccs3)n2)CC1` [MK-8745] came in with a drug sensitivity score of 0.

As for `Cn1cc(-c2cnn3c(N)c(Br)c([C@@H]4CCCNC4)nc23)cn1` [MK-8776], the drug sensitivity score is 0.

Regarding `Cc1cnc(-c2ccccc2C(C)C)nc1NCc1ccc(-n2ccnn2)cc1` [ML323], the drug sensitivity score is 0.

`O=C(CCNC(=O)c1ccc(OC(F)(F)F)cc1)N[C@@H]1CCCc2ccccc21` [ML390] came in with a drug sensitivity score of 3.4.

On to `O=C(Nc1cccc(NC(=O)c2cccc(O)c2O)c1)c1cccc(O)c1O` [MST-312], for which the drug sensitivity score amounted to 9.4.

As for `CNC(=O)[C@@H](NC(=O)[C@H](CC(C)C)[C@H](O)C(=O)NO)C(C)(C)C` [Marimastat], the drug sensitivity score turned out to be 0.

For `Cc1ccc(NC(=O)c2ccc(CN3CCN(C)CC3)cc2)cc1Nc1nc(-c2cccnc2)cs1` [Masitinib], the drug sensitivity score is 1.7.

`CC(=O)O[C@]1(C(C)=O)CC[C@H]2[C@@H]3C=C(C)C4=CC(=O)CC[C@]4(C)[C@H]3CC[C@@]21C` [Megestrol acetate] showed a drug sensitivity score of 0.

`CCN(CC)CCCC(C)Nc1c2ccc(Cl)cc2nc2ccc(OC)cc12` (stereo not drawn) [Mepacrine] showed a drug sensitivity score of 10.5.

`S=c1[nH]cnc2nc[nH]c12` [Mercaptopurine] yielded a drug sensitivity score of 4.1.

`Cc1ccc(C(=O)Nc2ccc(Oc3cc4cnn(C)c4cc3-c3cn[nH]c3)c(F)c2)c(=O)n1-c1ccc(F)cc1` [Merestinib]: the drug sensitivity score turned out to be 2.4.

As to `CN(C)C(=N)NC(=N)N` [Metformin], the drug sensitivity score turned out to be 0.

As to `CN(Cc1cnc2nc(N)nc(N)c2n1)c1ccc(C(=O)N[C@@H](CCC(=O)O)C(=O)O)cc1` [Methotrexate], the drug sensitivity score is 6.5.
